In patent US6384045B1, “Tricyclic and tetracyclic pyrones” (Kansas State University Research Foundation, priority 1997, dated 2002):
Entries after “also recorded” stand apart in the source; their conditions may differ.

Assays:
[1] = tested on: EMT6 mammary carcinoma cells; assay: Growth of EMT6 mammary carcinoma cells; assay type: cell-based
[2] = target: T1, tubulin protein from bovine brain (Bos taurus, UniProt P81947+Q6B856); assay: Polymerization of pure tubulin in a cell-free system; assay type: biochemical; details: 25 μM, 35° C., 20 min, 2.5 mg/ml tubulin
T1 construct: tubulin protein from bovine brain (2.5 mg/ml); purchased Cytoskeleton (Denver, Colo.); host or cells: bovine brain
Experimental: In a final volume of 200 μl, a solution of 2.5 mg/ml tubulin protein from bovine brain, 80 mM PIPES buffer, pH 6.8, 1 mM MgCl2, 1 mM EGTA, 1 mM GTP, and 10% glycerol was incubated at 35° C. for 20 minutes in the presence or absence (control) of 25 μM of compound 2A. The absorbance of the solution at OD340 nm was measured to determine the rate of tubulin polymerization.
Tubulin is a labile protein, which is unstable below 80 mM PIPES, should not be exposed to pH values less than 6.8 or greater than 7.0, and will not polymerize in the presence of Ca^2+. GTP and Mg^2+ are necessary for tubulin nativity and glycerol stabilizes tubulin and lowers the initial concentration required to initiate polymerization.
The ability of 2A to alter the polymerization of pure tubulin in a cell-free system in vitro was analyzed using the assay kit purchased from Cytoskeleton (Denver, Colo.). The polymerization reaction contained, in a final volume of 200 μl, tubulin protein from bovine brain (2.5 mg/ml), 80 mM PIPES buffer, pH 6.8, 1 mM MgCl2, 1 mM EGTA, 1 mM GTP and 10% glycerol. […] Samples were incubated at 35° C. in quartz microcells and the rate of tubulin polymerization was followed over 20 min by measuring the increased absorbance of the solution at OD340nm, using a Shimadzu UV-160 spectrophotometer equipped with dual-beam optics and a thermostatically-controlled cell holder. […]

[3] = tested on: L1210 lymphoblastic leukemia cells; assay: Inhibition of DNA synthesis (3H-thymidine incorporation) in L1210 cells in vitro; assay type: cell-based, Murine; details: for IC50: read-out: concentration that inhibits DNA synthesis by 50% (IC50)
Experimental: FIG. 1 illustrates a comparison of the effects of four new tricyclic pyrone derivatives and CPT on DNA synthesis in L1210 cells in vitro. About 2.53×10^6 cells suspended in 0.5 ml of RPMI 1640 medium were incubated at 37° C. for 90 minutes in the presence or absence (control) of the indicated concentrations of drugs. The cells were then pulse-labeled for an additional 30 minutes to determine the rate of ^3H-thymidine incorporation into DNA. DNA synthesis in vehicle-treated control cells was 43,956±4,569 cpm (100±11%). The blank value (1,241±99 cpm) for cells pulse-labeled for 0 minutes with 1 μCi of ^3H-thymidine has been subtracted from the results. Bars: means±SD (n=3).
(§1) All solutions of tricyclic pyrone analogs were dissolved and diluted in 100% ethanol (ETOH), whereas CPT (Sigma Chemical Co., St. Louis, Mo.) solutions were prepared in 100% dimethyl sulfoxide (DMSO). Murine L1210 lymphoblastic leukemia cells, obtained from the American Type Culture Collection (Rockville, Md.), were maintained in continuous exponential growth by twice-a-week passage in RPMI 1640 medium supplemented with 7.5% fortified bovine calf serum (HyClone Laboratories, Inc., Logan, Utah). The cultures were incubated at 37° C. in a humidified atmosphere containing 5% CO2. All drugs were supplemented to the culture medium in 1- or 2 μl aliquots. The concentration of vehicle in the final incubation volume never exceeded 0.2-0.4%. […] Control cells incubated in the absence of drugs were similarly treated with vehicle only and, in every experiment, all incubates received the same volume of solvent.
For DNA synthesis, L1210 cells were resuspended in fresh serum-free RPMI 1640 medium at a density of about 2.5×10^6 cells/0.5 ml. The cells were incubated at 37° C. for 90 min in the presence or absence of drugs and then pulse-labeled for an additional 30 min with 1 μCi of [methyl-^3H]thymidine (51 Ci/mmol; Amersham Corp., Arlington Heights, Ill.). The incubations were terminated by the addition of 0.5 ml of 10% trichloroacetic acid (TCA). After holding on ice for 15 min, the acid-insoluble material was recovered over Whatman GF/A glass microfibre filters and washed thrice with 2 ml of 5% TCA and twice with 2 ml of 100% EtOH. After drying the filters, the radioactivity bound to the acid-precipitable material was determined by liquid scintillation counting in 10 ml of Bio-Safe NA (Research Products International Corp., Mount Prospect, Ill.).

[4] = tested on: MCF-7 human breast cancer cells; assay: Growth of MCF-7 human breast cancer cells; assay type: cell-based
[5] = tested on: T2, liver and intestinal microsomal ACAT; assay: Inhibition of liver and intestinal microsomal ACAT activity; assay type: biochemical; details: using literature IC50 of pyripyropene as standard
T2 construct: other: 100 μM; other: 44 nM; other: 50 μM
Experimental: . Microsomes were prepared from liver and intestinal mucosal scrapings by sequential centrifugation and in vitro ACAT activity assays were done according to the method of Billheimer (Billheimer, J. T. (1985), “Cholesterol acyltransferase,” In Methods in Enzymology 111:286-293). Briefly, 100 μg microsomal protein, 22 μg BSA, and 52 nmol cholesterol and the synthesized drug in 5 μL DMSO were preincubated for 30 minutes at 37° C. in a phosphate buffer (200 μL total volume). After 30 minutes, 1 nmol [^14C]oleoyl-CoA was added as substrate and incubated for an additional 20 minutes. The reaction was stopped with the addition of 1 mL ethanol and lipids were extracted with hexane. Cholesteryl [^14C]oleate formation was quantified by thin-layer chromatography and data are expressed as percent inhibition of ACAT activity (pmol/μg protein per minute) compared to a control sample incubated with no drug. All samples were run in duplicate. […]

[6] = tested on: L1210 lymphoblastic leukemia cells; assay: Inhibition of L1210 tumor cell growth in vitro (Coulter counter); assay type: cell-based, Murine; details: for reduction of L1210 cell numbers vs control: 6.25 μM; for inhibition at 50 µM: 3 and 4 days in culture, read-out: inhibition of L1210 cell growth (% reduction of control cell numbers)
Experimental: Cells were plated at an initial density of 1×10^4 cells/0.5 ml/well in RPMI 1640 medium, containing 7.5% fortified bovine calf serum, and grown at 37° C. for 4 days in a humidified incubator in 5% CO2 in air. Cells were incubated in the presence or absence (^•, control) of 50 μM 3A (▪), 2D & 2E (□),3D & 3E (▴), 2B & 2C (Δ) 2A (♦), 3B & 3C (⋄), or 10 μM CPT (∘) and their density was monitored in triplicate every 24 h using a Coulter counter. Cells numbers are plotted on a logarithmic scale.
as §1
For tumor cell growth, L1210 cells were resuspended in fresh serum-containing RPMI 1640 medium, plated at an initial density of 1×10^4 cells/0.5 ml, and incubated in 48-well Costar cell culture plates (Costar, Cambridge, Mass.). Cells were grown for 4 days in the presence or absence of drugs and their density was monitored every 24 h using a Coulter counter (Coulter Electronics, Ltd., Luton Beds, England). Data of all in vitro experiments were analyzed using Student's t-test with the level of significance set at P<0.05.

[7] = target: acetylcholinesterase (AChE) (UniProt O42275); assay type: biochemical, electric eel; fetal bovine serum; details: read-out: AChE inhibition constant Ki ± std. error; 30° C., pH 8.0
Experimental: Acetylcholinesterase Assay and Inhibition Kinetics: Tricyclic pyrones of this invention were tested for inhibition of AChE. […] Reactions were carried out at 30° C. in 0.1 M sodium phosphate buffer at pH 8.0 in the presence of […] and 3.3×10^−4 M 3-carboxy-4-nitrophenyl disulfide. Aliquots of incubating mixtures containing enzyme alone, or enzyme in the presence of each carbamate, were withdrawn at selected time intervals and assayed for enzyme activity in order to obtain kinetic data. From the kinetic data, inhibition and bimolecular rate constants were calculated by the equation: [formula]
in which kapp is the pseudo-first-order rate constant.

[8] = tested on: L1210 leukemic cells; assay: Inhibition of other macromolecule synthesis (RNA and protein synthesis); assay type: cell-based
[9] = Mus musculus, L1210, 50 μM, 90 min + 30 min pulse

T1 sequence (P81947 whole entry): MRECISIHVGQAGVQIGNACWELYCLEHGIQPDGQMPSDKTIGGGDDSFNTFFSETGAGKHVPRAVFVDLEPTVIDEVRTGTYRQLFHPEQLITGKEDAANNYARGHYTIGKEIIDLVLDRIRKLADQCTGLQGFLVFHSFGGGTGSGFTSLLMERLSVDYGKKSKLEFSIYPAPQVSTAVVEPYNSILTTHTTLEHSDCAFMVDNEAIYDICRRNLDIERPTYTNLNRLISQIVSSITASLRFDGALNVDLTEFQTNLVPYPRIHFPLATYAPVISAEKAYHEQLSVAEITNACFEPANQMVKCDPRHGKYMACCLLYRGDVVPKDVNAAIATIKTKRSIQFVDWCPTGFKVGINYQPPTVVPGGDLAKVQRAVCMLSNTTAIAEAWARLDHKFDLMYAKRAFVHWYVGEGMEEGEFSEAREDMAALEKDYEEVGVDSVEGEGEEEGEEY
T1 sequence (Q6B856 whole entry): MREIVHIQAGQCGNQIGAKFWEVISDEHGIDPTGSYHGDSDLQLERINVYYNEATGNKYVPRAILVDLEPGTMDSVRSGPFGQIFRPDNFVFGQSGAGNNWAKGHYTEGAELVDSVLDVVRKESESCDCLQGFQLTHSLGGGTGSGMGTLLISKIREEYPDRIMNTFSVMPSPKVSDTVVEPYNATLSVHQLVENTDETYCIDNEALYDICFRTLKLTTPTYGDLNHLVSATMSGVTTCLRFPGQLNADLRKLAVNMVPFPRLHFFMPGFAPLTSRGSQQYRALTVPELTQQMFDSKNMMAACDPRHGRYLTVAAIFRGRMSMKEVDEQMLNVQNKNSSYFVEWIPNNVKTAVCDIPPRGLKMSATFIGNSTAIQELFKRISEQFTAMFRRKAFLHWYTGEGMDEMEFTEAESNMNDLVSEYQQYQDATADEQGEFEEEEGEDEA
Chain of acetylcholinesterase (AChE) (O42275 whole entry): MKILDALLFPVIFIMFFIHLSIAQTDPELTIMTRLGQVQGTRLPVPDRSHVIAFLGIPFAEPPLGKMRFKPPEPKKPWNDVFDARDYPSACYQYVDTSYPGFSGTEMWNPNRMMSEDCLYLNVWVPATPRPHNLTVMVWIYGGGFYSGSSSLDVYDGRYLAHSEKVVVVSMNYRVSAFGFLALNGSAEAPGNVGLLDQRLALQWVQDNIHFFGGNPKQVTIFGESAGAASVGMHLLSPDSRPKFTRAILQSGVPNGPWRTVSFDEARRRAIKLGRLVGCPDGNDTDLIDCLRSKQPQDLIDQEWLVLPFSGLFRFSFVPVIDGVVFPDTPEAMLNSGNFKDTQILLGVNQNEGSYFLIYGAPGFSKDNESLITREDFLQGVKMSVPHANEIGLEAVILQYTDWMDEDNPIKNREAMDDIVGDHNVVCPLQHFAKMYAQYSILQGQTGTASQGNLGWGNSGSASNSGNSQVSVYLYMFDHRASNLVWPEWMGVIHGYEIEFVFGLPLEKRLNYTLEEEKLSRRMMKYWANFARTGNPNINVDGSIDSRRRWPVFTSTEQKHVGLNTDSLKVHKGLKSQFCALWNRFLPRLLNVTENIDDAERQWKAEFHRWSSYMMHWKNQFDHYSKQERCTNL

SMILES: O=c1oc(-c2cccnc2)cc2c1C=C1CCCCC1O2 (stereo not shown) [Compound 2A, 3-(3-pyridyl)-1H-5a,6,7,8,9-pentahydro-1-oxopyrano[4,3-b][1]benzopyran]
- inhibition of growth of EMT6 mammary carcinoma cells [1]: greater inhibitory effect than tricyclic pyrone 3A
- inhibition of tubulin polymerization (OD340nm) [2]: completely inhibit polymerization of pure tubulin; also recorded: completely inhibits tubulin polymerization; also recorded: no significant MT polymerization can be detected
- inhibition at 50 µM [3, 9]: 79 to 91%
- IC50 ([3]; Mus musculus, L1210 cells, 2 h): ~8.5 µM
- inhibition of growth of MCF-7 human breast cancer cells [4]: greater inhibitory effect than tricyclic pyrone 3A
- IC50 [5]: 50 µM
- inhibition of tumor cell growth ([6]; 1.56 μM, after 24 h): no effect
- times less potent than CPT at inhibiting leukemic cell growth ([6]; 6.25 μM 2A mimics 0.78 μM CPT over 4 days): about 8 times
- reduction of L1210 cell numbers vs control ([6]; 1 day): 28%
- reduction of L1210 cell numbers vs control ([6]; 2 days): 74%
- reduction of L1210 cell numbers vs control ([6]; 3 days): 90%
- reduction of L1210 cell numbers vs control ([6]; 4 days): 94%
- IC50 ([6]; Mus musculus, L1210, 24 h, 1 day): 11 µM
- IC50 ([6]; Mus musculus, L1210, 48 h, 2 days): 2 µM
- IC50 ([6]; Mus musculus, L1210, 72 h, 3 days): 1.1 µM
- IC50 ([6]; Mus musculus, L1210, 96 h, 4 days): 1.1 µM
- inhibition at 1.56 µM ([6]; Mus musculus, L1210, 1.56 μM, after 96 h): 83%
- inhibition at 50 µM ([6]; Mus musculus, L1210): 91 to 100%

SMILES: COc1ccc(-c2cc3c(c(=O)o2)C=C2CCCCC2O3)cc1OC (stereo not shown) [Compound 3A, 3-(3,4-dimethoxyphenyl)-1H-5a,6,7,8,9-pentahydro-1-oxopyrano[4,3-b][1]benzopyran]
- Ki [7]: 23 ± 3.5 µM
- inhibition of macromolecule synthesis (RNA and protein synthesis) [8]: more potent inhibitor of macromolecule synthesis than the 3-pyridyl substituted tricyclic pyrone 2A
- IC50 ([3]; Mus musculus, L1210, 2 h): ~8.5 µM
- inhibition at 25 µM ([3]; Mus musculus, L1210, 25 μM, 90 min + 30 min pulse): 62%
- inhibition at 50 µM [3, 9]: 79 to 91%
- IC50 [5]: 63 µM
- inhibition at 50 µM ([6]; Mus musculus, L1210): 91 to 100%

SMILES: O=c1cc(O)cc(-c2cccnc2)o1 [Compound 5B, 4-hydroxy-6-(3-pyridyl)-2-pyrone]
- melting point: 187 to 189 °C
- inhibition of DNA synthesis in L1210 cells ([3]; 25 μM, 90 min + 30 min pulse): no significant effects
- inhibition of DNA synthesis in L1210 cells ([3]; 50 μM, 90 min + 30 min pulse, 50 µM): no effect; also recorded: ineffective; also recorded: fail to inhibit DNA synthesis
